Reference: US6131226A, “1,4-dihydropyridine compounds as bradykinin antagonists” (Pfizer Inc., priority 1996, dated 2000)

Tested on: bradykinin-induced plasma leakage in rat urinary bladder
Experiment: bradykinin-induced plasma leakage test in rat urinary bladder
Assay type: in vivo
Conditions: test compound at a concentration of 1.5 μM, i.v. 3 ml/kg, bradykinin 10 nmol/kg i.v.
Description: The bradykinin antagonist activity of the dihydropyridine compounds in vivo is evaluated by a plasma leakage test. This test essentially involve determining the concentration of the individual compound required to reduce by 50% the amount of bradykinin-induced plasma leakage in rat urinary bladder, thereby affording characteristic ED50 values for each compounds tested.
More specifically, the assay is carried out as follows. 3.5-week old male Sprague-Dawlew rats are purchased from Charles River Japan Inc. The rats are fed on stock diet (CRF from Charles River Japan, Inc.) and maintained under the standard conditions (temperature, 23±1° C. and humidity 55±5%) for at least 3 days. The rats are fasted overnight prior to the experiments. Each test group consists of 5 rats. […]
Captopril (5 mg/kg of body weight) is intraperitoneally (i.p.) injected to the rats, and 20 min later the rats are anesthetized by an administration of Nembutal (Abbott) ([…] of body weight). […] The absorbance of the extract is measured spectrophotometrically at 605 nm to determined the dye concentration. The effect of the individual test compound is calculated as a percentage of the amount of Evans blue leaked into the urinary bladder as compared to the control (saline for the test compounds).

## COC(=O)C1=C(CCc2ccccc2OC)NC(CC(=O)N2CCN(C3CC4CCC(C3)N4C)CC2)=C(C(=O)OC)C1c1c(Cl)cccc1Cl (stereo not shown) [dimethyl 4-(2,6-dichlorophenyl)-6-[2-(2-methoxyphenyl)ethyl]-2-[4-(8-methyl-8-azabicyclo[3.2.1]oct-3-yl)-1-piperazinyl]carbonylmethyl-1,4-dihydropyridine-3,5-dicarboxylate]
  inhibition of urinary bladder leakage (Evans blue): did not show significant in vivo activity
